Reference: ChEMBL document CHEMBL5331107 (J Med Chem, 2023)

Columns and labels:
[1] = test system: Human immunodeficiency virus 1; assay: Antiviral activity against NNRTI-resistant HIV-1 harboring K103N mutant infected in human MT4 cells assessed as protection against virus-induced cytopathic effect incubated for 5 days by MTT assay; format: functional, organism-based; conditions: Human immunodeficiency virus 1, MT4, 120 h
[2] = test system: Human immunodeficiency virus 1; assay: Antiviral activity against NNRTI-resistant HIV-1 harboring E138K mutant infected in human MT4 cells assessed as protection against virus-induced cytopathic effect incubated for 5 days by MTT assay; format: functional, organism-based; conditions: Human immunodeficiency virus 1, MT4, 120 h
[3] = Cytotoxicity against human MT4 cells assessed as reduction in cell viability incubated for 5 days by MTT assay; format: toxicity, cell-based; conditions: time 5 day
[4] = test system: Human immunodeficiency virus 1; assay: Antiviral activity against NNRTI-resistant HIV-1 harboring L100I mutant infected in human MT4 cells assessed as protection against virus-induced cytopathic effect incubated for 5 days by MTT assay; format: functional, organism-based; conditions: Human immunodeficiency virus 1, MT4, 120 h
[5] = test system: Human immunodeficiency virus 1; format: functional, organism-based; conditions: Human immunodeficiency virus 1, MT4, 120 h
[6] = test system: Human immunodeficiency virus 1; format: functional, organism-based; conditions: Human immunodeficiency virus 1, MT4, 120 h; remark: listed apart in the source
[7] = test system: Human immunodeficiency virus 1; assay: Antiviral activity against NNRTI-resistant HIV-1 harboring F227L and V106A double mutant infected in human MT4 cells assessed as protection against virus-induced cytopathic effect incubated for 5 days by MTT assay; format: functional, organism-based; conditions: Human immunodeficiency virus 1, MT4, 120 h
[8] = test system: Human immunodeficiency virus 1; format: functional, organism-based; conditions: Human immunodeficiency virus 1, MT4, 120 h; remark: listed apart in the source
[9] = biological target: Human immunodeficiency virus type 1 reverse transcriptase (Human immunodeficiency virus 1, UniProt Q72547); assay: Inhibition of HIV-1 reverse transcriptase assessed as assessed as reduction of biotin-dUTP incorporation into […] incubated for 1 hrs by ELISA analysis
in vitro [10] = conditions: human, MT4 cells
Description: Selectivity index, ratio of CC50 for cytotoxicity against human MT4 cells to EC50 for antiviral activity against wildtype HIV-1 IIIB infected in human MT4 cells

in vitro [11] = conditions: human, MT4 cells; remark: listed apart in the source
Description: Selectivity index, ratio of CC50 for cytotoxicity against human MT4 cells to EC50 for antiviral activity against NNRTI-resistant HIV-1 harboring K103N mutant infected in human MT4 cells

in vitro [12] = conditions: human, MT4 cells; remark: listed apart in the source
Description: Selectivity index, ratio of CC50 for cytotoxicity against human MT4 cells to EC50 for antiviral activity against NNRTI-resistant HIV-1 harboring E138K mutant infected in human MT4 cells

in vitro [13] = conditions: human, MT4 cells; remark: listed apart in the source
Description: Selectivity index, ratio of CC50 for cytotoxicity against human MT4 cells to EC50 for antiviral activity against NNRTI-resistant HIV-1 harboring L100I mutant infected in human MT4 cells

in vitro [14] = conditions: human, MT4 cells; remark: listed apart in the source
Description: Selectivity index, ratio of CC50 for cytotoxicity against human MT4 cells to EC50 for antiviral activity against NNRTI-resistant HIV-1 harboring Y181C mutant infected in human MT4 cells

in vitro [15] = conditions: human, MT4 cells; remark: listed apart in the source
Description: Selectivity index, ratio of CC50 for cytotoxicity against human MT4 cells to EC50 for antiviral activity against NNRTI-resistant HIV-1 harboring Y188L mutant infected in human MT4 cells

in vitro [16] = conditions: human, MT4 cells; remark: listed apart in the source
Description: Selectivity index, ratio of CC50 for cytotoxicity against human MT4 cells to EC50 for antiviral activity against NNRTI-resistant HIV-1 harboring F227L and V106A mutant infected in human MT4 cells

in vitro [17] = conditions: human, MT4 cells; remark: listed apart in the source
Description: Selectivity index, ratio of CC50 for cytotoxicity against human MT4 cells to EC50 for antiviral activity against NNRTI-resistant HIV-1 harboring K103N and Y181C mutant infected in human MT4 cells

[18] = test system: Human immunodeficiency virus 1; assay: microbe, parasite or virus in culture; conditions: Human immunodeficiency virus 1, IIIB, MT4, 120 h
Description: Antiviral activity against wild type HIV-1 IIIB infected in human MT4 cells assessed as protection against virus-induced cytopathic effect incubated for 5 days by MTT assay

[19] = Water solubility of the compound in phosphate buffer at pH 7.4; conditions: buffer
[20] = Metabolic stability in human liver microsomes assessed as half-life incubated for 60 mins in the presence of NADPH by LC-MS/MS analysis; format: ADME, Microsome; conditions: microsomes, 1 h
[21] = Metabolic stability in human liver microsomes assessed as intrinsic clearance incubated for 60 mins in the presence of NADPH by LC-MS/MS analysis; conditions: microsomes
[22] = Metabolic stability in human liver assessed as intrinsic clearance incubated for 60 mins in the presence of NADPH by LC-MS/MS analysis; format: ADME, tissue-based; conditions: read-out: CLH
[23] = Metabolic stability in human liver microsomes assessed as compound remaining measured after 60 mins in the presence of NADPH by LC-MS/MS analysis; format: ADME, Microsome; conditions: microsomes, 1 h

SMILES | EC50 [1] [nM] | EC50 [2] [nM] | CC50 at 120 h [3] [nM] | EC50 [4] [nM] | EC50 [5] [nM] | EC50 [6] [nM] | EC50 [7] [nM] | EC50 [8] [nM] | IC50 [9] [nM] | selectivity ratio (in vitro [10]) | selectivity ratio (in vitro [11]) | selectivity ratio (in vitro [12]) | EC50 [18] [nM] | other results
Cc1cc(C#N)cc(C)c1Oc1nc(Nc2ccc(C#N)cc2)nc2c1CN(Cc1ccc(S(N)(=O)=O)cc1)CC2 | 7.56 | 39.7 | > 221000 | 72.6 | 34.4 | 31.8 | 135 | 89.9 | 126 | > 33400 | > 29200 | > 5570 | 6.62 | selectivity ratio (in vitro [13]): > 3040; selectivity ratio (in vitro [14]): > 6430; selectivity ratio (in vitro [15]): > 6940; selectivity ratio (in vitro [16]): > 1640; selectivity ratio (in vitro [17]): > 2460
Cc1cc(C#N)cc(C)c1Oc1nc(Nc2ccc(C#N)cc2)nc2c1CN(Cc1ccc(S(C)(=O)=O)cc1)CC2 | 8.72 | 43.3 | > 221000 | 160 | 41.3 | 36.6 | 234 | 118 | 234 | > 25400 | > 25400 | > 5110 | 8.7 | selectivity ratio (in vitro [13]): > 1380; selectivity ratio (in vitro [14]): > 5360; selectivity ratio (in vitro [15]): > 6050; selectivity ratio (in vitro [16]): > 944; selectivity ratio (in vitro [17]): > 1880
O=C1Nc2ccc(Cl)cc2[C@@](C#CC2CC2)(C(F)(F)F)O1 [EFAVIRENZ] | 133 | 6.82 | > 6350 | 753 | 7.87 | 425 |  | 433 |  |  |  |  |  | 
Cc1ccnc2c1NC(=O)c1cccnc1N2C1CC1 [NEVIRAPINE] | 7790 | 205 | > 15000 | 2290 | 8950 | > 15000 | > 15000 | > 15000 |  |  |  |  | 155 | 
Cc1cc(C#N)cc(C)c1Oc1nc(Nc2ccc(C#N)cc2)nc2c1CN(Cc1ccccc1)CC2 | 27.6 | 103 | 52100 |  |  |  |  |  | 225 | 2740 | 1890 | 507 | 19.1 | 
Cc1cc(C#N)cc(C)c1Oc1nc(Nc2ccc(C#N)cc2)nc2c1CN(C(=O)c1ccc(C#N)cc1)CC2 | 16.2 | 46.8 | > 238000 |  |  |  |  |  | 154 | > 23000 | > 14700 | > 5090 | 10.3 | 
Cc1cc(C#N)cc(C)c1Oc1nc(Nc2ccc(C#N)cc2)nc2c1CN(C(=O)c1ccc(C(F)(F)F)cc1)CC2 | 44 | 132 | > 220000 |  |  |  |  |  | 297 | > 7640 | > 5000 | > 1670 | 28.8 | 
Cc1cc(C#N)cc(C)c1Oc1nc(Nc2ccc(C#N)cc2)nc2c1CN(C(=O)c1cccc(F)c1)CC2 | 9.5 | 33 | 5020 |  |  |  |  |  | 207 | 551 | 529 | 152 | 9.12 | 
Cc1cc(C#N)cc(C)c1Oc1nc(Nc2ccc(C#N)cc2)nc2c1CN(C(=O)c1ccc(F)cc1)CC2 | 8.97 | 24.1 | 6510 |  |  |  |  |  | 154 | 736 | 726 | 270 | 8.84 | 
Cc1cc(C#N)cc(C)c1Oc1nc(Nc2ccc(C#N)cc2)nc2c1CN(C(=O)c1cccc(C(F)(F)F)c1)CC2 | 36.1 | 152 | > 220000 |  |  |  |  |  | 313 | > 7930 | > 6090 | > 1450 | 27.7 | 
Cc1cc(/C=C/C#N)cc(C)c1Nc1ccnc(Nc2ccc(C#N)cc2)n1 [RILPIVIRINE] |  |  |  |  |  |  |  |  |  |  |  |  |  | solubility [19]: < 1 µg/mL; t1/2 [20]: 12.8 min; microsomal CLint at 1 h [21]: 108 µL/min/mg; CLint scaled [22]: 97.6 mL/min/kg; Stability [23]: 21%
COc1ccc(C(=O)N2CCc3nc(Nc4ccc(C#N)cc4)nc(Oc4c(C)cc(C#N)cc4C)c3C2)cc1 | 9.56 | 47.5 | 32400 |  |  |  |  |  | 211 | 4800 | 3390 | 682 | 6.76 | 
COC(=O)c1ccc(C(=O)N2CCc3nc(Nc4ccc(C#N)cc4)nc(Oc4c(C)cc(C#N)cc4C)c3C2)cc1 | 45.8 | 274 | > 224000 |  |  |  |  |  | 237 | > 10600 | > 4890 | > 817 | 21.1 | 
Cc1cc(C#N)cc(C)c1Oc1nc(Nc2ccc(C#N)cc2)nc2c1CN(C(=O)c1cccc(C#N)c1)CC2 | 10.4 | 40 | > 238000 |  |  |  |  |  | 161 | > 30600 | > 22800 | > 5950 | 7.77 | 
Cc1cc(C#N)cc(C)c1Oc1nc(Nc2ccc(C#N)cc2)nc2c1CN(Cc1ccc(B(O)O)cc1)CC2 | 15.5 | 55.7 | 11800 |  |  |  |  |  | 180 | 787 | 758 | 211 | 14.9 | 
COc1cccc(C(=O)N2CCc3nc(Nc4ccc(C#N)cc4)nc(Oc4c(C)cc(C#N)cc4C)c3C2)c1 | 8.01 | 33.3 | 4780 |  |  |  |  |  | 180 | 653 | 597 | 144 | 7.32 | 
Cc1cc(C#N)cc(C)c1Oc1nc(Nc2ccc(C#N)cc2)nc2c1CNCC2 | 3.09 | 5.61 | 19700 | 33.2 | 45.4 | 19.5 | 136 | 383 | 57 | 10400 | 6380 | 3520 | 1.89 | selectivity ratio (in vitro [13]): 595; selectivity ratio (in vitro [14]): 435; selectivity ratio (in vitro [15]): 1010; selectivity ratio (in vitro [16]): 145; selectivity ratio (in vitro [17]): 51
Cc1cc(C#N)cc(C)c1Oc1nc(Nc2ccc(C#N)cc2)nc2c1CN(S(=O)(=O)N(C)C)CC2 | 8.19 | 30.5 | 62800 |  |  |  |  |  | 84 | 7910 | 7670 | 2060 | 7.94 | 
Cc1ccc(C(=O)N2CCc3nc(Nc4ccc(C#N)cc4)nc(Oc4c(C)cc(C#N)cc4C)c3C2)cc1 | 7.14 | 23.5 | > 243000 | 94.6 | 49.7 | 50.5 | 314 | 182 | 236 | > 34300 | > 34000 | > 10300 | 7.08 | selectivity ratio (in vitro [13]): > 2570; selectivity ratio (in vitro [14]): > 4890; selectivity ratio (in vitro [15]): > 4810; selectivity ratio (in vitro [16]): > 774; selectivity ratio (in vitro [17]): > 1340
C=CC(=O)N1CCc2nc(Nc3ccc(C#N)cc3)nc(Oc3c(C)cc(C#N)cc3C)c2C1 | 11.7 | 45.3 | 11100 | 44.2 | 47.4 | 50.7 | 134 | 138 | 71 | 1370 | 956 | 246 | 8.12 | selectivity ratio (in vitro [13]): 252; selectivity ratio (in vitro [14]): 235; selectivity ratio (in vitro [15]): 220; selectivity ratio (in vitro [16]): 83; selectivity ratio (in vitro [17]): 81
Cc1cc(C#N)cc(C)c1Oc1nc(Nc2ccc(C#N)cc2)nc2c1CN(C(=O)c1ccc([N+](=O)[O-])cc1)CC2 | 9.81 | 32.9 | > 229000 | 120 | 48.3 | 44.6 | 270 | 156 | 146 | > 30000 | > 23400 | > 6960 | 7.65 | selectivity ratio (in vitro [13]): > 1910; selectivity ratio (in vitro [14]): > 4740; selectivity ratio (in vitro [15]): > 5130; selectivity ratio (in vitro [16]): > 848; selectivity ratio (in vitro [17]): > 1470
Cc1cc(C#N)cc(C)c1Oc1nc(Nc2ccc(C#N)cc2)nc2c1CN(C(=O)c1cccc([N+](=O)[O-])c1)CC2 | 7.15 | 43 | > 229000 |  |  |  |  |  | 169 | > 28600 | > 32100 | > 5330 | 8 | 
